Source: publication PMC6240685, “Strong Inhibitory Effect, Low Cytotoxicity and High Plasma Stability of Steroidal Inhibitors of N-Methyl-D-Aspartate Receptors With C-3 Amide Structural Motif” (Frontiers in Pharmacology, 2018)

Test system: GABARs
Experiment: Inhibition of native GABAR responses in cultured hippocampal neurons
Type: cell-based, rat
Method: FIGURE 8 The effect of compound 6 on peak and steady-state responses of native NMDARs, AMPARs, and GABARs. (A) Examples of traces obtained from cultured hippocampal neurons. Compound 6 (10 μM) was pre-applied in the absence of agonists followed by co-application with NMDA (100 μM), AMPA (100 μM), and GABA (5 μM) (duration of agonist and steroid application is indicated by filled and open bars, respectively). (B) Bar graph represents the mean values of relative changes in the peak (black columns) and steady-state (red columns) responses of native NMDARs, AMPARs, and GABARs recorded in the continuous presence of 10 μM compound 6. Error bars represent SD from five independent measurements. Asterisks mark significance at the level of P < 0.05 (Paired t-test). […]
Electrophysiological experiments were performed on HEK293 cells transfected with plasmids encoding rat GluN1-1a/GluN2A-D and GFP genes as described previously, ([Petrovic et al., 2005]; [Cais et al., 2008]; [Korinek et al., 2010]) or on primary hippocampal neurons prepared from P0–P1 rats, plated on collagen/poly-D-lysine-coated glass coverslips at a density of ∼50,000 cells/cm^2, and grown in Neurobasal A medium with B27 Supplement (Gibco). […] Agonist-induced responses were low-pass filtered at 2 kHz, digitally sampled at 5 kHz, and analyzed with pClamp software version 10.5 (Molecular Devices). […]

Compound: C[C@@]12CCC[C@H]1[C@@H]1CC[C@@H]3C[C@H](NC(=O)[C@@H](N)CC(=O)O)CC[C@]3(C)[C@H]1CC2 [Compound 6, (S)-3-amino-4-(((3R,5R,8S,9S,10S,13S,14S)-10,13-dimethylhexadecahydro-1H-cyclopenta[a]phenanthren-3-yl)amino)-4-oxobutanoic acid]
- IC50 (5 μM GABA, hippocampal neurons): 17 ± 0.2 µM
- inhibition of steady-state vs peak response, GABARs (10 μM compound present continuously, GABA 5 μM): more efficient inhibitor of tonically activated receptors at the steady–state
